Measured values published in PubChem BioAssay (NCI).
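Cultured in 96-well plates, cells were exposed to test compound for 48 hours across five concentrations. At the TGI there is no net growth.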

Assays:
Test in all cases: NCI-60 cell line screen, 48 h
DMS 273 small cell lung = system: DMS 273 small cell lung
SF-268 CNS = system: SF-268 CNS
EKVX NSCLC = system: EKVX NSCLC
ACHN renal = system: ACHN renal
OVCAR-8 ovarian = system: OVCAR-8 ovarian
DLD-1 colon = system: DLD-1 colon
M14 melanoma = system: M14 melanoma
SR leukemia = system: SR leukemia
TK-10 renal = system: TK-10 renal
RXF 393 renal = system: RXF 393 renal
K-562 leukemia = system: K-562 leukemia
KM20L2 colon = system: KM20L2 colon
RPMI-8226 leukemia = system: RPMI-8226 leukemia
OVCAR-5 ovarian = system: OVCAR-5 ovarian
RXF-631 renal = system: RXF-631 renal
IGROV1 ovarian = system: IGROV1 ovarian
KM12 colon = system: KM12 colon
DMS 114 small cell lung = system: DMS 114 small cell lung
MOLT-4 leukemia = system: MOLT-4 leukemia
UACC-257 melanoma = system: UACC-257 melanoma
A498 renal = system: A498 renal
SF-539 CNS = system: SF-539 CNS
COLO 205 colon = system: COLO 205 colon
SNB-19 CNS = system: SNB-19 CNS
NCI-H23 lung = system: NCI-H23 lung
CCRF-CEM leukemia = system: CCRF-CEM leukemia
U251 CNS = system: U251 CNS
SK-MEL-2 melanoma = system: SK-MEL-2 melanoma
OVCAR-4 ovarian = system: OVCAR-4 ovarian
SK-MEL-28 melanoma = system: SK-MEL-28 melanoma
CAKI-1 renal = system: CAKI-1 renal
A549 NSCLC = system: A549 NSCLC
MALME-3M melanoma = system: MALME-3M melanoma
LOX IMVI melanoma = system: LOX IMVI melanoma
UO-31 renal = system: UO-31 renal
HCT-15 colon = system: HCT-15 colon
SNB-78 CNS = system: SNB-78 CNS
SF-295 CNS = system: SF-295 CNS
SN12C renal = system: SN12C renal
HOP-18 NSCLC = system: HOP-18 NSCLC
SK-MEL-5 melanoma = system: SK-MEL-5 melanoma
HOP-92 NSCLC = system: HOP-92 NSCLC
SW-620 colon = system: SW-620 colon
NCI-H226 lung = system: NCI-H226 lung
NCI-H460 lung = system: NCI-H460 lung
XF 498 CNS = system: XF 498 CNS
HCT-116 colon = system: HCT-116 colon
HT29 colon = system: HT29 colon
HL-60(TB) leukemia = system: HL-60(TB) leukemia
SNB-75 CNS = system: SNB-75 CNS
NCI-H522 lung = system: NCI-H522 lung
UACC-62 melanoma = system: UACC-62 melanoma
M19-MEL melanoma = system: M19-MEL melanoma
HCC-2998 colon = system: HCC-2998 colon
LXFL 529 NSCLC = system: LXFL 529 NSCLC
786-0 renal = system: 786-0 renal
HOP-62 NSCLC = system: HOP-62 NSCLC
SK-OV-3 ovarian = system: SK-OV-3 ovarian
OVCAR-3 ovarian = system: OVCAR-3 ovarian

Measured: TGI

COc1nc(NC2OCC(OC(C)=O)C(OC(C)=O)C2OC(C)=O)c(N=C(C)C(C)=O)c(=O)n1C (stereo unspecified)
> 100 µM: DMS 273 small cell lung | SF-268 CNS | EKVX NSCLC | ACHN renal | OVCAR-8 ovarian | DLD-1 colon | M14 melanoma | SR leukemia | TK-10 renal | RXF 393 renal | K-562 leukemia | KM20L2 colon | RPMI-8226 leukemia | OVCAR-5 ovarian | RXF-631 renal | IGROV1 ovarian | KM12 colon | DMS 114 small cell lung | MOLT-4 leukemia | UACC-257 melanoma | A498 renal | SF-539 CNS | COLO 205 colon | SNB-19 CNS | NCI-H23 lung | CCRF-CEM leukemia | U251 CNS | SK-MEL-2 melanoma | OVCAR-4 ovarian | SK-MEL-28 melanoma | CAKI-1 renal | A549 NSCLC | MALME-3M melanoma | LOX IMVI melanoma | UO-31 renal | HCT-15 colon | SNB-78 CNS | SF-295 CNS | SN12C renal | HOP-18 NSCLC | SK-MEL-5 melanoma | HOP-92 NSCLC | SW-620 colon | NCI-H226 lung | NCI-H460 lung | XF 498 CNS | HCT-116 colon | HT29 colon | HL-60(TB) leukemia | SNB-75 CNS

CC(=O)NC1C(=O)CC(c2ccccc2)N(C)C1c1ccccc1 (stereo unspecified)
> 100 µM: DMS 273 small cell lung | SF-268 CNS | NCI-H522 lung | UACC-62 melanoma | EKVX NSCLC | ACHN renal | OVCAR-8 ovarian | DLD-1 colon | M19-MEL melanoma | HCC-2998 colon | M14 melanoma | SR leukemia | TK-10 renal | RXF 393 renal | K-562 leukemia | LXFL 529 NSCLC | KM20L2 colon | OVCAR-5 ovarian | RXF-631 renal | IGROV1 ovarian | KM12 colon | DMS 114 small cell lung | MOLT-4 leukemia | UACC-257 melanoma | A498 renal | SF-539 CNS | COLO 205 colon | SNB-19 CNS | 786-0 renal | NCI-H23 lung | CCRF-CEM leukemia | U251 CNS | SK-MEL-2 melanoma | OVCAR-4 ovarian | SK-MEL-28 melanoma | CAKI-1 renal | A549 NSCLC | MALME-3M melanoma | LOX IMVI melanoma | UO-31 renal | HCT-15 colon | SNB-78 CNS | SF-295 CNS | SN12C renal | SK-MEL-5 melanoma | HOP-92 NSCLC | SW-620 colon | HOP-62 NSCLC | NCI-H226 lung | SK-OV-3 ovarian | NCI-H460 lung | OVCAR-3 ovarian | HCT-116 colon | HT29 colon | HL-60(TB) leukemia | SNB-75 CNS
